Experimental data taken from ChEMBL document CHEMBL1201862, “PubChem BioAssay data set” (2004).
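Values below derive from 48-hour exposures of cells grown in 96-well plates, with endpoints linearly interpolated between the two concentrations bracketing the appropriate inhibition level. GI50 is the concentration that inhibits growth by half.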 Calls of active or inactive are those of the source. Cut-off read from the data, not from the text of the source: active = GI50 up to about 1.1 µM and inactive = higher.

Experiments:
Test in all cases: NCI-60 cell line screen, 48 h
DLD-1 = system: DLD-1
RXF 631 = system: RXF 631
SK-MEL-28 = system: SK-MEL-28
OVCAR-4 = system: OVCAR-4
IGROV-1 = system: IGROV-1
M19-MEL = system: M19-MEL
SF-539 = system: SF-539
DMS-114 = system: DMS-114
CCRF-CEM = system: CCRF-CEM
CAKI-1 = system: CAKI-1
UO-31 = system: UO-31
ACHN = system: ACHN
HL-60 = system: HL-60
COLO 205 = system: COLO 205
786-0 = system: 786-0
MOLT-4 = system: MOLT-4
M14 = system: M14
A498 = system: A498
SF-268 = system: SF-268
HCT-116 = system: HCT-116
LXFL 529 = system: LXFL 529
NCI-H460 = system: NCI-H460
HCC 2998 = system: HCC 2998
SNB-75 = system: SNB-75
SNB-78 = system: SNB-78
NCI-H522 = system: NCI-H522
SK-MEL-2 = system: SK-MEL-2
UACC-62 = system: UACC-62
DMS-273 = system: DMS-273
HOP-92 = system: HOP-92
RPMI-8226 = system: RPMI-8226
SK-OV-3 = system: SK-OV-3
SN12C = system: SN12C
NCI-H226 = system: NCI-H226
Malme-3M = system: Malme-3M
K562 = system: K562
HOP-62 = system: HOP-62
NCI-H23 = system: NCI-H23
SR = system: SR

Measured: GI50

COc1cc([C@H]2Oc3cc(O)c4c(=O)cc(-c5ccc(O)cc5)oc4c3O[C@@H]2CO)ccc1O
inactive: DLD-1 15.3 µM | RXF 631 10.6 µM | SK-MEL-28 14.5 µM | OVCAR-4 20.1 µM | IGROV-1 19.7 µM | M19-MEL 17.7 µM | SF-539 > 10 µM | DMS-114 15.9 µM | CCRF-CEM 13.6 µM | CAKI-1 15.1 µM | UO-31 12.6 µM | ACHN 12.9 µM | HL-60 18.8 µM | COLO 205 15.2 µM | 786-0 15.3 µM | MOLT-4 18.7 µM | M14 16.8 µM | A498 16.8 µM | SF-268 2.28 µM | HCT-116 13.5 µM | LXFL 529 15.1 µM | NCI-H460 4.54 µM | HCC 2998 15 µM | SNB-75 5.45 µM | SNB-78 14.6 µM | NCI-H522 4.76 µM | SK-MEL-2 16.1 µM | UACC-62 11.1 µM | DMS-273 14.2 µM | HOP-92 25.5 µM | RPMI-8226 16.1 µM | SK-OV-3 14.6 µM | SN12C > 10 µM | NCI-H226 18.5 µM | Malme-3M 18.8 µM | K562 23.4 µM | HOP-62 14.5 µM | NCI-H23 14.6 µM | SR 15.3 µM
